Activity, inhibition and IC50 data for six compounds are collected here from ChEMBL document CHEMBL3399976, “Dual inhibition of allosteric mitogen-activated protein kinase (MEK) and phosphatidylinositol 3-kinase (PI3K) oncogenic targets with a bifunctional inhibitor” (Bioorg Med Chem, 2015).

Activity calls are given as the source filed them. The calls are words filed in the database; no cut-off is given here.

Broadly, the IC50 is the point on the concentration scale where inhibition reaches its midpoint. High values mean lower potency, low ones higher potency.

Series [1] in a line: Cytotoxicity against mouse lung fibroblast at 10 to 25 uM after 24 hrs by Alamar Blue assay. The class given is cell-based.
Series [2] in a line: Cytotoxicity against human PANC1 cells at 10 to 25 uM after 24 hrs by Alamar Blue assay. The class given is functional, PANC-1.
The species entered for series [3] is Mus musculus. Briefly: Inhibition of PI3K in mouse lung fibroblast assessed as reduction in pAkt level at 25 uM after 1 hr by Western blotting analysis. For orientation: In western blotting, separated proteins are transferred to a membrane and probed.
In series [4] the target is T1, Dual specificity mitogen-activated protein kinase kinase 1 (Homo sapiens, UniProt Q02750). Briefly: Inhibition of MEK1 in human PANC1 cells assessed as reduction in pErk1/2 level at 25 uM after 1 hr by Western blotting analysis. The note with it: PANC-1. The class given is cell-based.
Series [5] deals with A549. Briefly: Cytotoxicity against human A549 cells at 10 to 25 uM after 24 hrs by Alamar Blue assay. The class given is functional. In general terms: Alamar Blue is a resazurin reagent that responds to reducing activity.
For series [6], the target named is T1, Dual specificity mitogen-activated protein kinase kinase 1. Briefly: Inhibition of MEK1 in human A549 cells assessed as reduction in pErk1/2 level after 1 hr by Western blotting analysis. The class given is cell-based.
The target of series [7] is Protein kinase C alpha type (Homo sapiens, UniProt P17252). Briefly: Inhibition of PKC-alpha (unknown origin).
Series [8] deals with Dual specificity mitogen-activated protein kinase kinase 1 (Mus musculus) (UniProt P31938). Put plainly: Inhibition of MEK1 in mouse lung fibroblast assessed as reduction in pErk1/2 level at 25 uM after 1 hr by Western blotting analysis.
Series [9] deals with PANC-1. Put plainly: Inhibition of PI3K in human PANC1 cells assessed as reduction in pAkt level at 25 uM after 1 hr by Western blotting analysis. The class given is cell-based.
The test system of series [10] is A549. Briefly: Inhibition of PI3K in human A549 cells assessed as reduction in pAkt level at 25 uM after 1 hr by Western blotting analysis. The class given is cell-based.
Series [11] can be described thus: Inhibition of ERK (unknown origin). Also noted: species or system Homo sapiens.
For series [12], the target named is T1, Dual specificity mitogen-activated protein kinase kinase 1. Briefly: Inhibition of MEK1 in human PANC1 cells assessed as reduction in pErk1/2 level after 1 hr by Western blotting analysis. The class given is cell-based. Particulars: PANC-1.
Series [13] in a line: Inhibition of PI3K (unknown origin) by TR-FRET assay. More on the design: species or system Homo sapiens. (Time-resolved FRET reads energy transfer from a long-lived donor to a nearby acceptor.)
The target in series [14] is T1, Dual specificity mitogen-activated protein kinase kinase 1. Put plainly: Inhibition of MEK1 in human A549 cells assessed as reduction in pErk1/2 level at 25 uM after 1 hr by Western blotting analysis. The class given is cell-based.
Series [15] concerns PANC-1. Briefly: Inhibition of PI3K in human PANC1 cells assessed as reduction in pAkt level after 1 hr by Western blotting analysis. The class given is cell-based.
Series [16] addresses Dual specificity mitogen-activated protein kinase kinase 1 (Mus musculus) (UniProt P31938). Put plainly: Inhibition of MEK1 in mouse lung fibroblast assessed as reduction in pErk1/2 level after 1 hr by Western blotting analysis.
Series [17] concerns the target Aurora kinase B (Homo sapiens, UniProt Q96GD4). Put plainly: Inhibition of AurB (unknown origin).
The species named for series [18] is Mus musculus. Put plainly: Inhibition of PI3K in mouse lung fibroblast assessed as reduction in pAkt level after 1 hr by Western blotting analysis.
In series [19] the target is Epidermal growth factor receptor (Homo sapiens, UniProt P00533). Put plainly: Inhibition of EGFR (unknown origin).
The test system of series [20] is A549. Briefly: Inhibition of PI3K in human A549 cells assessed as reduction in pAkt level after 1 hr by Western blotting analysis. The class given is cell-based.
For series [21], the species on record is Mus musculus. Put plainly: Inhibition of PI3K in mouse lung fibroblast assessed as reduction in pAkt level at 10 uM after 1 hr by Western blotting analysis.
Series [22] has as its target Dual specificity mitogen-activated protein kinase kinase 1 (Mus musculus) (UniProt P31938). Briefly: Inhibition of MEK1 in mouse lung fibroblast assessed as reduction in pErk1/2 level at 10 uM after 1 hr by Western blotting analysis.
In series [23] the test system is A549. Briefly: Inhibition of PI3K in human A549 cells assessed as reduction in pAkt level at 10 uM after 1 hr by Western blotting analysis. The class given is cell-based.
Series [24] concerns PANC-1. Put plainly: Inhibition of PI3K in human PANC1 cells assessed as reduction in pAkt level at 10 uM after 1 hr by Western blotting analysis. The class given is cell-based.

T1 sequence (Q02750 whole entry): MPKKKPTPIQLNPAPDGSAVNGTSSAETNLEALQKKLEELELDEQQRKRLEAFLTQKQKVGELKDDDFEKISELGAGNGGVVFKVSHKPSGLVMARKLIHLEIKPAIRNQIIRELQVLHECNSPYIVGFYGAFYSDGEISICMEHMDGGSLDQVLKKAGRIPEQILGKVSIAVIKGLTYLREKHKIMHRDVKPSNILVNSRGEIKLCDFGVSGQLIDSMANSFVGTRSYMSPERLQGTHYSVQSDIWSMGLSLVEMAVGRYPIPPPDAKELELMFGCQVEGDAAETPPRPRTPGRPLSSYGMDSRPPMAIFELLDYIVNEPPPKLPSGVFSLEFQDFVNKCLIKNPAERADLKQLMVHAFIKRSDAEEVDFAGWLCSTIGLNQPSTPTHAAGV
Chain of Dual specificity mitogen-activated protein kinase kinase 1 (Mus musculus) (P31938 whole entry): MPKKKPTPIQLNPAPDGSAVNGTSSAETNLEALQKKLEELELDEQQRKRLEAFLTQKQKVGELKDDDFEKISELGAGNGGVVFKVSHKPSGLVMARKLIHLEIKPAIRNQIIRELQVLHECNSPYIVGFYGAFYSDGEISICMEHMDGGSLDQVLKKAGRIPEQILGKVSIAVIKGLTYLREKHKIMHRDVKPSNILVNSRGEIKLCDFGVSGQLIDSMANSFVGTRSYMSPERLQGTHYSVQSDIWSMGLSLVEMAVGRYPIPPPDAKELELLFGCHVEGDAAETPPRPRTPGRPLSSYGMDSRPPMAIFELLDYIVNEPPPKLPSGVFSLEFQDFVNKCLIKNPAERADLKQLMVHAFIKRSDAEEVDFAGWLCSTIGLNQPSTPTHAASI
Chain of Epidermal growth factor receptor (P00533 whole entry): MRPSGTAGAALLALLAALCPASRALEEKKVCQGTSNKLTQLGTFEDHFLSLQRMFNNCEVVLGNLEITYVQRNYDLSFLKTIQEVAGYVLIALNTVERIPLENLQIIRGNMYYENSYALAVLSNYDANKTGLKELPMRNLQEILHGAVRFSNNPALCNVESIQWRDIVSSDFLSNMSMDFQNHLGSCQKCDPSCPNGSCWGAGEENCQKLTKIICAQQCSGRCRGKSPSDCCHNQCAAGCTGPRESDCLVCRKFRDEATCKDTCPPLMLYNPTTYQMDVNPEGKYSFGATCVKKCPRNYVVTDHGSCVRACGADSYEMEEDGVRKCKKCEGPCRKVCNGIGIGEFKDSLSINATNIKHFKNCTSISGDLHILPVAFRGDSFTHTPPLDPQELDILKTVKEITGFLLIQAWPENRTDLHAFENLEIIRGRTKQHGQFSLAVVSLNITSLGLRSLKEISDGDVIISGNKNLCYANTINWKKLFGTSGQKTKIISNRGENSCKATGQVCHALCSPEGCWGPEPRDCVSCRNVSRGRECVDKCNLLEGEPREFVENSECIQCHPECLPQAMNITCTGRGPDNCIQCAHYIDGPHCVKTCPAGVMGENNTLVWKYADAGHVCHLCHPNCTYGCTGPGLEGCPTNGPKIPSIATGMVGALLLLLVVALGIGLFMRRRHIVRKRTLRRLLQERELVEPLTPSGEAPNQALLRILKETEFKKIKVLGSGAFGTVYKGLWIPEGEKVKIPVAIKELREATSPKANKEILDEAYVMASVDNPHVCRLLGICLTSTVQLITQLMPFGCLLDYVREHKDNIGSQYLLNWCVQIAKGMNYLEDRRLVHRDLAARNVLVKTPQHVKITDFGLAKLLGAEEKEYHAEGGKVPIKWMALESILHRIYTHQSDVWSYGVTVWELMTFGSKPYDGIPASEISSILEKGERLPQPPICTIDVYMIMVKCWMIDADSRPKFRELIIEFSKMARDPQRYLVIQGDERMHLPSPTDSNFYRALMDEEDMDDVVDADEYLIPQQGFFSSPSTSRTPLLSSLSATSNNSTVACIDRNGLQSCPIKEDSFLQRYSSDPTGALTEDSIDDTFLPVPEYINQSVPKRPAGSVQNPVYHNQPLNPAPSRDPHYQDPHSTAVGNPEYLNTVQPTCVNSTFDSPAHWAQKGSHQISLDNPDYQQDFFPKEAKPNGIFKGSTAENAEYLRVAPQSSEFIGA
Chain of Aurora kinase B (Q96GD4 whole entry): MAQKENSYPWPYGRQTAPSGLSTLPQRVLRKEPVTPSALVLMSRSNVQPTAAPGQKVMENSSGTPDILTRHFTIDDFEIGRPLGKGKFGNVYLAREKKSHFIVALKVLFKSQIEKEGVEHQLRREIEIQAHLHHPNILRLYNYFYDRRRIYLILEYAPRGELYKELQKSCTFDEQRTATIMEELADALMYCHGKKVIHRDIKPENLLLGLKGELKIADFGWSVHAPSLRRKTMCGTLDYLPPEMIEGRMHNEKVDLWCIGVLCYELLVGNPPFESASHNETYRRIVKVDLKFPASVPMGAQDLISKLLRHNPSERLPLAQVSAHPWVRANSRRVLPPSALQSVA

Regarding `Cc1c(Cc2cccc(N(C)S(=O)(=O)CCCNCCCCCC(=O)N3CCN(c4nc(N5CCOCC5)nc(-n5c(C(F)F)nc6ccccc65)n4)CC3)c2)c(=O)oc2cc(OC(=O)N(C)C)ccc12`, the Activity result is reported as “Non-toxic” in [1], 50% in series [2] and 50% in series [5]. Moreover, the inhibition result in series [3], in series [4], in series [8], in series [9], in series [10] and in series [14] was “Active” in each case. Besides, the inhibition entry in series [6], in series [12], in [15], in [16], in series [18] and in series [20] was “Dose-dependent effect” in each case. Further, the IC50 is > 10 µM in series [7]; > 10 µM in [11]; 172 nM in series [13]; > 10 µM in [17]; > 10 µM in [19].
For `CNS(=O)(=O)Nc1nccc(Cc2c(C)c3ccc(Oc4ncccn4)cc3oc2=O)c1F`, the inhibition result in [21], in series [23] and in series [24] was “inactive” each time. Besides, the inhibition entry in series [22] is “Active”.
Turning to `O=C(NOC[C@H](O)CO)c1ccc(F)c(F)c1Nc1ccc(I)cc1F`, the inhibition result in series [21], in [23] and in [24] was “inactive” in each case. For the same compound, the inhibition result in series [22] was “Active”.
For `NCCCCCC(=O)N1CCN(c2nc(N3CCOCC3)nc(-n3c(C(F)F)nc4ccccc43)n2)CC1`, the IC50 in series [13] was < 100 nM.
Regarding `FC(F)c1nc2ccccc2n1-c1nc(N2CCOCC2)nc(N2CCOCC2)n1`, the inhibition result in series [21], in series [23] and in series [24] was “Active” in each case. The inhibition entry in series [22] was “inactive”.
Turning to `O=C(CCCCC[N+](=O)[O-])N1CCN(c2nc(N3CCOCC3)nc(-n3c(C(F)F)nc4ccccc43)n2)CC1`, in series [13], the IC50 was > 1000 nM.
